Assay results as given in ChEMBL document CHEMBL1671651, “Azithromycin in Pseudomonas aeruginosa biofilms: bactericidal activity and selection of nfxB mutants” (2009).
Values after ≈ are worked out from the molar mass of the structure shown. Active and inactive are the calls of the source. The calls are words filed in the database; no cut-off is given here.

Experiments:
Pseudomonas aeruginosa [1] = test: Antimicrobial activity against Pseudomonas aeruginosa PAO1 planktonic cells by microdilution method; format: functional
Pseudomonas aeruginosa [2] = test: Antimicrobial activity against mucA::lox-deficient Pseudomonas aeruginosa PAOMA planktonic cells by microdilution method; format: functional
Pseudomonas aeruginosa [3] = test: Antimicrobial activity against mutS::lox-deficient Pseudomonas aeruginosa PAOMS planktonic cells by microdilution method; format: functional
Pseudomonas aeruginosa [4] = test: Antimicrobial activity against mucA::lox, mutS::lox-deficient Pseudomonas aeruginosa PAOMSA planktonic cells by microdilution method; format: functional
Pseudomonas aeruginosa [5] = test: Bactericidal activity against Pseudomonas aeruginosa PAO1 biofilm assessed as reduction in bacterial load at 0.5 ug/ml for 7days measured on day 1; format: functional
Pseudomonas aeruginosa [6] = test: Bactericidal activity against Pseudomonas aeruginosa PAO1 biofilm assessed as reduction in bacterial load at 256 ug/ml for 7 days measured on day 1; format: functional
Pseudomonas aeruginosa [7] = test: Bactericidal activity against mutS::lox-deficient Pseudomonas aeruginosa PAOMS biofilm assessed as reduction in bacterial load at 0.5 ug/ml for 7 days measured on day 1; format: functional
Pseudomonas aeruginosa [8] = test: Bactericidal activity against mutS::lox-deficient Pseudomonas aeruginosa PAOMS biofilm assessed as reduction in bacterial load at 256 ug/ml for 7 days measured on day 1; format: functional
Pseudomonas aeruginosa [9] = test: Bactericidal activity against mucA::lox, mutS::lox-deficient Pseudomonas aeruginosa PAOMSA biofilm assessed as reduction in bacterial load at 256 ug/ml for 7 days measured on day 1; format: functional
Pseudomonas aeruginosa [10] = test: Bactericidal activity against Pseudomonas aeruginosa PAO1 biofilm assessed as reduction in bacterial load at => 4 ug/ml upto 7 days; format: functional, organism-based
Pseudomonas aeruginosa [11] = test: Bactericidal activity against mucA::lox-deficient Pseudomonas aeruginosa PAOMA biofilm assessed as reduction in bacterial load at => 4 ug/ml upto 7 days; format: functional, organism-based
Pseudomonas aeruginosa [12] = test: Bactericidal activity against mutS::lox-deficient Pseudomonas aeruginosa PAOMS biofilm assessed as increase in viable cells at 4 ug/ml for 4 days; format: functional, organism-based
Pseudomonas aeruginosa [13] = test: Bactericidal activity against mutS::lox-deficient Pseudomonas aeruginosa PAOMS biofilm assessed as increase in viable cells at 4 ug/ml for 7 days; format: functional, organism-based
Pseudomonas aeruginosa [14] = test: Bactericidal activity against mucA::lox, mutS::lox-deficient Pseudomonas aeruginosa PAOMSA biofilm assessed as increase in viable cells at 4 ug/ml for 4 days; format: functional, organism-based
Pseudomonas aeruginosa [15] = test: Bactericidal activity against mucA::lox, mutS::lox-deficient Pseudomonas aeruginosa PAOMSA biofilm assessed as increase in viable cells at 4 ug/ml for 7 days; format: functional, organism-based
Pseudomonas aeruginosa [16] = test: Bactericidal activity against mutS::lox-deficient Pseudomonas aeruginosa PAOMS biofilm assessed as increase in viable cells at day 7 relative to wild-type; format: functional
Pseudomonas aeruginosa [17] = test: Bactericidal activity against mucA::lox, mutS::lox-deficient Pseudomonas aeruginosa PAOMSA biofilm assessed as increase in viable cells relative to […]; format: functional
Pseudomonas aeruginosa [18] = test: Bactericidal activity against mucA::lox, mutS::lox-deficient Pseudomonas aeruginosa PAOMSA biofilm assessed as increase in viable cells at 16 ug/ml; format: functional, organism-based
Pseudomonas aeruginosa [19] = test: Antimicrobial activity against nfxB gene-deficient Pseudomonas aeruginosa PAONB assessed as increase in viable cells at 0.5 to 4 ug/ml after 24 hrs relative to wild-type; format: functional
Pseudomonas aeruginosa [20] = test: Antimicrobial activity against mexD gene-deficient Pseudomonas aeruginosa […] assessed as increase in viable cells at 0.5 to 4 ug/ml after 24 hrs relative to wild-type; format: functional

In the case of `CC[C@H]1OC(=O)[C@H](C)[C@@H](O[C@H]2C[C@@](C)(OC)[C@@H](O)[C@H](C)O2)[C@H](C)[C@@H](O[C@@H]2O[C@H](C)C[C@H](N(C)C)[C@H]2O)[C@](C)(O)C[C@@H](C)CN(C)[C@H](C)[C@@H](O)[C@]1(C)O` [AZITHROMYCIN], the MIC (Pseudomonas aeruginosa [1]) is reported as 128 µg/mL (≈ 171 µM), the MIC (Pseudomonas aeruginosa [2]) is reported as 128 µg/mL (≈ 171 µM) and the MIC (Pseudomonas aeruginosa [3]) is reported as 128 µg/mL (≈ 171 µM). The MIC (Pseudomonas aeruginosa [4]) was 128 µg/mL (≈ 171 µM), the log10cfu (Pseudomonas aeruginosa [5]) was 2 and the log10cfu (Pseudomonas aeruginosa [6]) was 4. It also gave a log10cfu (Pseudomonas aeruginosa [7]) of 2, a log10cfu (Pseudomonas aeruginosa [8]) of 4 and a log10cfu (Pseudomonas aeruginosa [9]) of 2. The Activity (Pseudomonas aeruginosa [10]) was “Active”, the Activity (Pseudomonas aeruginosa [11]) was “Active” and the Activity (Pseudomonas aeruginosa [12]) was “inactive”. The Activity (Pseudomonas aeruginosa [13]) was “inactive”, the Activity (Pseudomonas aeruginosa [14]) was “inactive” and the Activity (Pseudomonas aeruginosa [15]) was “inactive”. For the same compound, the “fold change (FC)” value (Pseudomonas aeruginosa [16]) was 50, the “fold change (FC)” value (Pseudomonas aeruginosa [17]) was 5000 and the Activity (Pseudomonas aeruginosa [18]) was “inactive”. The “fold change (FC)” value (Pseudomonas aeruginosa [19]) was 1 and the “fold change (FC)” value (Pseudomonas aeruginosa [20]) was 1.
